The source of these data is US4125606A, “Octapeptide useful for the treatment of diabetes” (Choay S.A., priority 1974, dated 1978).

Where no end group is shown, it is not given here.

For one data set, the system named is hepatic cells. The data set is described as follows: Insulin binding to hepatic cells. It is filed as cell-based. On the procedure: In the same way, the ratio of insulin binding to hepatic cells placed in a suitable reaction medium was measured. When the medium contains octapeptide (I), the ratio of insulin binding to the hepatic cells increases. The result is similar if the said cells are incubated with octapeptide (I).

In data set [1] the target is glyceraldehyde 3-phosphate dehydrogenase (Homo sapiens, UniProt P04406). The data set is described as follows: Enzymatic effect in vitro: lifting of somantine inhibition of glyceraldehyde 3-phosphate dehydrogenase. It is filed as biochemical. On the procedure: In this test, the compound (I) was tested for its ability to raise the inhibition of a somantine extracted from a plasma with respect to the action of glyceraldehyde 3-phosphate dehydrogenase.
To this end, the activity of the enzyme in the presence successively of somantine alone, of the compound (I) alone, and finally in the presence of somantine and of the compound (I), were measured.
In this test, the glyceraldehyde 3-phosphate dehydrogenase was used at a concentration of 0.5 μg/ml, the somantine at 25 μg/ml, and the compound (I) at 50 μg/ml.
The method used for the measurements is that of Pihl and Lang (J. Biol. Chem 237: 1356-1362, 1962).

For data set [2], the system named is glucose receptors of the Langerhans islets. The data set is described as follows: Insulin liberated by Langerhans islets removed from treated animals. The data set is classed as in vivo. Conditions: islets removed one day or four days after injection; medium supplemented with glucose. On the procedure:
Finally, the effect of the octapeptide (I) on the glucose receptors of the Langerhans islets was determined. For this purpose, the octapeptide (I) was injected into animals.
One day or four days later, the animals were killed and the islets of Langerhans removed. The latter were placed in a reaction medium supplemented with glucose, and the amount of insulin liberated was determined and compared to controls.

The subject of data set [3] is insulin receptors of lipid cells. Kind of data set: Insulin binding to trypsinated lipid cells. It is filed as cell-based. To be noted: octapeptide introduced into the medium; trypsinated cells alone no longer fix insulin. The text has this: In an attempt to elucidate the mechanism of action of the octapeptide (I) with respect to insulin, the phenomena were first studied at the level of the insulin receptors of lipid cells trypsinated to destroy said receptors.

Another data set relates to adult rabbits. Kind of data set: Effect on the in vivo effect of insulin: intravenous glucose test in the rabbit. Here is the method:
The assays were carried out in the course of the tests carried out to determine the resistance to glucose injected by the intravenous route in the rabbit.
These tests were done on adult rabbits, which had been subjected to prior fasting for 24 hours. Blood was drawn off and the glucose level in the blood samples was determined. The measurement was carried out by the ferricyanide method as adapted for the "Technicon Autoanalyser" (J. Biol. Chem. 120: 51-55, 1937). In this way the glucose level on fasting, then its variation after the intravenous injection of glucose, at the dose of 1 gram per kilo, was determined. These measurements were then renewed in rabbits which had received, 5 minutes after the glucose, an intravenous injection of the compound (1) (5 μg/kg).

The next data set relates to diabetic rats. Kind of data set: Effect on glycemia in diabetic animals. It is filed as in vivo. To be noted: diabetic rats fasted 4 hours; glucose 0.5 g/kg; octapeptide 2 μg/g. Here is the method:
In this test, the drop in glycemia was compared after the simultaneous injection of glucose, on the one hand, and, on the other hand, either of the octapeptide at the dosage of […], or of insulin, or again of both at once. In that latter case the dosage of octapeptide used was also 2 μg/g.
The tests were carried out on diabetic rats, kept fasting for 4 hours before the injection of glucose (at the dose of 0.5 g/kg of animal).

Data set [4] concerns mice. Kind of data set: Tolerance: acute and subacute toxicity study in mice. To be noted: 1 month, daily dosages 5 to 10 times the active dosage. It is filed as in vivo. On the procedure: An acute and subacute toxicity study was carried out on mice for 1 month, each mouse receiving daily dosages corresponding to 5 to 10 times the active dosage.
The subject of data set [5] is mice. Kind of data set: Influence on glycemia in mice after glucose injection. The data set is classed as in vivo. The text has this: Influence of octapeptide (I) on glycemia has been determined in mice under conditions similar to those described for rabbits. The experiment included two series of tests aimed at studying the immediate effects and the prolonged effects.
In the first series of tests, a simultaneous injection of glucose and of the octapeptide (I) was made, and the lowering of glycemia with respect to that of control animals which had not received glucose, was followed as a function of time.
The injections were respectively of 0.25 g of glucose and 2 mg per kilo of body weight of the animal, namely about 40 μ/g, of octapeptide (I) or […].
In the second series of tests, the mice received the product before the injection of glucose. Three injections each of 40 μg of octapeptide (I) were administered respectively 72, 48 and 24 hours before the injection of glucose.

Data set [6] has as its system isolated hemidiaphragm of the rat. Kind of data set: Consumption of glucose in vitro, isolated rat hemidiaphragm. It is filed as cell-based, Wistar albino male rats. To be noted: related to the weight of tissue in grams and per hour; glucose 2 mg/ml, insulin 500 μU/ml, compound (I) 250 μg/ml. Here is the method:
To follow this consumption, the isolated hemidiaphragm of the rat in vitro was used. The method employed is that described by Park et al. (Effect of insulin on free glucose content of rat diaphragm in vitro - Amer. J. Physiol. 182: 12-16, 1955). The hemidiaphragm derived from Wistar albino male rats each weighing 200 to 250 g was used. The rats were fed freely for 7 days and then starved for 24 hours. The solutions studied contained 2 mg/ml of glucose, 500 μU/ml of insulin. The compound (I) was introduced at 250 μg/ml. The consumption of glucose related to the weight of tissue in grams and per hour was under these conditions: […]

Chain of glyceraldehyde 3-phosphate dehydrogenase (P04406 whole entry, species assumed): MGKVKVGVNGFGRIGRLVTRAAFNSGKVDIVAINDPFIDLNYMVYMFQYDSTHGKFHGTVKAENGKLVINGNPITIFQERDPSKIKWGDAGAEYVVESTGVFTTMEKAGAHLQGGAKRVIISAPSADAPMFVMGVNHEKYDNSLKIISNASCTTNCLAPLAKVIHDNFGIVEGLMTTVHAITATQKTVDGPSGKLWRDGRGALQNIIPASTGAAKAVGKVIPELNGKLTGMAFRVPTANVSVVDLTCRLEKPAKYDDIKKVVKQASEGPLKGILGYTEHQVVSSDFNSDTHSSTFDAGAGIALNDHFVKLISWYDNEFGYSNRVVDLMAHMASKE

In the case of “LSRLFDNA [compound (I), leucyl - seryl - arginyl - leucyl - phenylalanyl - aspartyl - asparaginyl - alanine]”, the results for the “ratio of insulin binding to hepatic cells (in words)” value in the data set with hepatic cells (cells incubated with octapeptide (I)) and in the data set on hepatic cells (medium contains octapeptide (I)) were “similar” and “increases”, respectively. The “effect on the inhibiting effect of somantine (in words)” value in data set [1] (compound (I) 50 μg/ml together with somantine 25 μg/ml) is reported as “inhibiting effect of somantine to be partly suppressed”. In addition, the “effect on the activity of the enzyme (in words)” value in data set [1] (compound (I) alone, 50 μg/ml) was “practically without effect on the activity of the enzyme”. For the same substance, the “level of liberated insulin compared to controls (in words)” value in data set [2] is reported as “very substantial increase”. For the same substance, in [3], the “insulin binding to trypsinated lipid cells (in words)” value was “the binding reappears”. Further, the “decrease in the blood glucose level after intravenous glucose (in words)” value in the data set with adult rabbits (rabbits fasted 24 hours, glucose 1 g/kg i.v., compound 5 μg/kg i.v. 5 minutes after the glucose) is reported as “decrease in the glucose level is greater”. Moreover, the “glucose level reached, compared with fasting level (in words)” value in the data set with adult rabbits (rabbits, glucose 1 g/kg i.v., compound 5 μg/kg i.v.) is reported as “glucose level even reached values less than those which were measured in the fasting rabbits”. In the data set with adult rabbits (similar tests at intervals of several days after the injection), the “persistence of the effect on carbohydrate metabolism (in words)” value is “persists several days”. For the same substance, the “course of glycemia after glucose injection (in words)” value in the data set on diabetic rats is reported as “glycemia is practically unmodified”. Further, in the data set on mice [4], the “toxic effect, macro and microscopic studies (in words)” value is reported as “not shown any toxic effect”. Further, the “drop in glycemia, immediate effect (in words)” value in the data set on mice [5] (simultaneous injection of glucose 0.25 g and octapeptide 2 mg per kilo) is on record as “drop in glycemia distinctly more accentuated”. Also, in the data set with mice [5] (three injections of 40 μg at 72, 48 and 24 hours before glucose, versus control mice receiving only glucose), the “drop in glycemia, prolonged effect (in words)” value is listed as “more rapid drop in glycemia”.

Regarding “insulin: insulin; in the hemidiaphragm test 500 μU/ml in a 2 mg/ml glucose solution [reference compound]”, the “course of glycemia after glucose injection (in words)” value with diabetic rats is reported as “decreases rapidly, stabilises, then rises again”. In data set [6], the “Consumption of glucose” value is reported as 4.10 ± 0.15 mg.
